Laboratory results reported in patent publication EP0485890A2, “Use of 2,3-disubstituate 1-azolyl-propane for inhibiting the pathogenic growth phase of dimorph yeast cell” (HOECHST AKTIENGESELLSCHAFT, priority 1990, dated 1992).
In brackets after ≈: the same amount, converted by molar mass.

Experiments:
Candida albicans = assay: Minimal inhibitory concentration (MHK) in vitro; type: cell-based; settings: read-out: MHK von Candida albicans
Description: Außerdem wird deutlich, daß zur Erreichung einer ausgeprägten Hemmwirkung der Phospholipase-Aktivität Dosen ausreichen, die deutlich unterhalb derjenigen liegen, die zur Hemmung des Pilzwachstums in vitro nötig sind und welche bisher für eine reine antimykotische Therapie als unbedingt erforderlich erachtet wurden (sihe MHK-Werte von Candida albicans einiger ausgewählter Derivate).

[1] = tested on: Lysophospholipase (Phospholipase B); assay: In vitro enzyme test: inhibition of released exoenzymes (phospholipase) of Candida albicans blastoconidia on egg-yolk agar; type: cell-based; settings: Candida albicans Stamm 200/175
Description: Als Beispiel für die Hemmung der pathogenen Phase dimorpher Hefezellen werden Ergebnisse eines in-vitro-Enzymtests angeführt, in welchen die prozentuale Hemmung freigesetzter Exoenzyme, insbesondere freigesetzter Lysophospholipase (Phospholipase B), als Maß für die Wirksamkeit bestimmt wird.
Zur Feststellung der Enzymhemmung wurde eine Suspension von Candida albicans Blastokonidien (Stamm 200/175), wobei die Keimdichte photometrisch auf eine Extinktion von 0,5 (500 nm) eingestellt war, mit Präparatelösung bzw. zur Kontrolle mit Lösungsmittellösung vermischt und zwar • a) 100 ul Präparatelösung (Suspension) • + 900 µl Keimsuspension • b) 100 µl Lösungsmittel • + 900 µl Keimsuspension • Jeweils 5 µl der 30 min bei 21 ° C inkubierten Blastokonidiensuspension wurden auf eine Agarplatte (Sabourand Agar mit Zusatz von 8 % Eigelb, 1 M NaCI, 5 mM CaC12) aufgetropft. • Die so beimpfte Platte wurde 3 Tage bei 37 ° C bebrütet.
Die Auswertung erfolgte derart, daß • 1. der Durchmesser (mm) der Candida albicans-Kolonie (behandelt und unbehandelt) sowie • 2. der Gesamtdurchmesser von Kolonie und Trübungshof, welcher durch Exoenzyme verursacht wurde (behandelt und unbehandelt) bestimmt wurde.
Aus der Bestimmung des Quotienten von Präparate- und Kontrollgruppe ergab sich ein Wert, der als Maß für die Enzymaktivität anzusehen war.

Structure (SMILES) | MIC (Candida albicans) | % Hemmung der Phospholipase ([1]; Konzentration 10 µg/ml) | % Hemmung der Phospholipase ([1]; Konzentration 50 µg/ml) | other results
CCN(CC(Cn1ccnc1)OCC=C(C)CCC=C(C)C)c1ccc(Cl)cc1 (stereo not drawn) [1.1] | > 125 µg/mL | 100% | – | % Hemmung der Phospholipase ([1]; Konzentration 1 µg/ml): 15%; % Hemmung der Phospholipase ([1]; Konzentration 5 µg/ml): 60%
CCN(CC(Cn1ccnc1)OCc1ccc(Cl)cc1)c1ccc(Cl)cc1 (stereo not drawn) [1.2] | – | – | 90% | –
CC(C)N(CC(Cn1ccnc1)OCc1ccc(Cl)cc1)c1ccc(Cl)c(Cl)c1 (stereo not drawn) [1.3] | 125 µg/mL (≈ 276 µM) | 25% | 100% | –
Clc1ccc(COC(CN2CCN(c3ccc(Cl)cc3)CC2)Cn2ccnc2)cc1 (stereo not drawn) [1.4] | – | – | 100% | –
OC(CN(Cc1ccc(Cl)cc1)c1ccc(Cl)cc1)Cn1ccnc1 (stereo not drawn) [1.5] | – | – | 100% | –
COC(CN(Cc1ccc(Cl)cc1)c1ccc(Cl)cc1)Cn1ccnc1 (stereo not drawn) [1.6] | – | – | 100% | –
OC(CN(Cc1ccc(Cl)cc1)Cc1ccc(Cl)cc1)Cn1ccnc1 (stereo not drawn) [1.8] | – | – | 100% | –
Clc1ccc(OCC(Cn2ccnc2)N2CCN(c3ccccc3)CC2)cc1 (stereo not drawn) [1.9] | – | – | 100% | –
Clc1ccc(SC(COc2ccc(Cl)cc2Cl)Cn2ccnc2)cc1 (stereo not drawn) [1.10] | – | – | 50% | –
Clc1ccc(N2CCN(C(COc3ccc(Cl)cc3Cl)Cn3ccnc3)CC2)cc1 (stereo not drawn) [1.11] | – | – | 100% | –
CN(CC(Cn1ccnc1)OCc1ccc(Cl)cc1Cl)c1ccc(Cl)cc1 (stereo not drawn) [1.12] | – | – | 100% | –
Clc1ccc(COC(CNc2ccc(Cl)cc2)Cn2ccnc2)cc1 (stereo not drawn) [1.13] | – | – | 26% | % Hemmung der Phospholipase ([1]; Konzentration 100 µg/ml): 33%
CCN(CC(Cn1ccnc1)OCc1ccc(Cl)cc1)c1ccc(Cl)c(Cl)c1 (stereo not drawn) [1.14] | – | – | 30% | % Hemmung der Phospholipase ([1]; Konzentration 100 µg/ml): 100%
CCN(CC(Cn1ccnc1)Sc1ccc(Cl)cc1)c1ccc(Cl)c(Cl)c1 (stereo not drawn) [1.15] | 125 µg/mL (≈ 284 µM) | – | 100% | –
CCN(CC(Cn1ccnc1)OCc1ccc(Cl)cc1Cl)c1ccc(Cl)c(Cl)c1 (stereo not drawn) [1.16] | 125 µg/mL (≈ 264 µM) | – | 100% | –
CCN(CC(Cn1ccnc1)OCc1ccc(Cl)cc1)c1cccc(C(F)(F)F)c1 (stereo not drawn) [1.17] | – | – | 12% | % Hemmung der Phospholipase ([1]; Konzentration 100 µg/ml): 38%
CCN(CC(Cn1ccnc1)OCc1ccc(Cl)cc1)c1ccc(Cl)cc1Cl (stereo not drawn) [1.18] | – | – | 60% | –
CCN(CC(Cn1ccnc1)SCc1ccc(Cl)cc1)c1cccc(C(F)(F)F)c1 (stereo not drawn) [1.19] | 125 µg/mL (≈ 275 µM) | – | 71,4% | –
Clc1ccc(N2CCN(C(COCc3ccc(Cl)cc3Cl)Cn3ccnc3)CC2)cc1 (stereo not drawn) [1.20] | – | – | 100% | –

Structure (SMILES) | MIC (Candida albicans) | % Hemmung der Phospholipase ([1]; Konzentration 10 µg/ml) | % Hemmung der Phospholipase ([1]; Konzentration 50 µg/ml) | other results
CCN(CC(Cn1ccnc1)OCc1cccc(Cl)c1)c1ccc(Cl)cc1 (stereo not drawn) [1.21] | 125 µg/mL (≈ 309 µM) | 12,7% | 50% | –
CCN(CC(Cn1ccnc1)OCc1ccc(Cl)cc1Cl)c1ccc(Cl)cc1 (stereo not drawn) [1.22] | 125 µg/mL (≈ 285 µM) | 23,1% | 100% | –
CC(=NOCC(Cn1ccnc1)OCc1ccc(Cl)cc1Cl)c1ccc(Cl)cc1 (stereo not drawn) [1.23] | – | 35,7% | 100% | –
CC(=NOCC(Cn1ccnc1)OCc1ccc(Cl)cc1)c1ccc(Cl)cc1 (stereo not drawn) [1.24] | – | 24,3% | 50% | –
CCN(CC(Cn1ccnc1)OCc1ccc(Cl)cc1)c1cccc(Cl)c1 (stereo not drawn) [1.25] | – | 27,3% | 60% | –
CC(=NOCC(Cn1ccnc1)Sc1ccc(Cl)cc1)c1ccc(Cl)cc1 (stereo not drawn) [1.26] | – | 50% | 90% | –
CCN(CC(Cn1ccnc1)OCc1ccc(Cl)cc1Cl)c1cccc(Cl)c1 (stereo not drawn) [1.28] | 125 µg/mL (≈ 285 µM) | – | 61,5% | % Hemmung der Phospholipase ([1]; Konzentration 100 µg/ml): 100%
CC(=NOCC(Cn1ccnc1)OCc1ccc(Cl)cc1)c1ccc(Cl)cc1Cl (stereo not drawn) [1.29] | – | 20,6% | 100% | –
Clc1ccc(CN2CCN(C(COc3ccc(Cl)cc3Cl)Cn3ccnc3)CC2)cc1 (stereo not drawn) [1.30] | – | – | 100% | –
Clc1ccc(OCC(Cn2ccnc2)N2CCN(Cc3ccc(Cl)cc3Cl)CC2)cc1 (stereo not drawn) [1.31] | – | – | 38,6% | % Hemmung der Phospholipase ([1]; Konzentration 100 µg/ml): 90%
CC(=NOCC(Cn1ccnc1)OCc1ccc(Cl)cc1Cl)c1ccc(Cl)cc1Cl (stereo not drawn) [1.32] | 125 µg/mL (≈ 257 µM) | 18,2% | 100% | –
CCCCN(CC(Cn1ccnc1)OCc1ccc(Cl)cc1)c1ccc(Cl)cc1 (stereo not drawn) [1.33] | 125 µg/mL (≈ 289 µM) | 24% | 80% | –
C=CCN(CC(Cn1ccnc1)OCc1ccc(Cl)cc1)c1ccc(Cl)cc1 (stereo not drawn) [1.34] | – | 10,7% | 100% | –
CCCCCCCCN(CC(Cn1ccnc1)OCc1ccc(Cl)cc1)c1ccc(Cl)cc1 (stereo not drawn) [1.35] | > 125 µg/mL | 45% | 100% | –
COC(CN(Cc1ccc(Cl)cc1Cl)c1ccc(Cl)cc1)Cn1ccnc1 (stereo not drawn) [1.37] | – | 16,7% | – | –
CCCCCCCCOC(CN(CC)c1ccc(Cl)cc1)Cn1ccnc1 (stereo not drawn) [1.40] | 125 µg/mL (≈ 319 µM) | 75,0% | 100% | –
CCN(CC(O)Cn1ccnc1)c1ccc(Cl)c(Cl)c1 (stereo not drawn) [1.41] | – | 33,3% | 100% | –
Clc1ccc(COC(CN2CCCc3ccccc32)Cn2ccnc2)c(Cl)c1 (stereo not drawn) [1.42] | – | – | 100% | –
Clc1ccc(COC(CN2CCCc3ccccc32)Cn2ccnc2)cc1 (stereo not drawn) [1.43] | – | 50% | 100% | –
